Test results reported in patent US20010049113A1, “Diagnosis and treatment of herpes infections” (priority 2000, published 2001).

Experiments:
[1] = test system: HSV-1; test: HSV-1 virus yield from H-ras transformed cells, plaque titration on Vero cells; format: cell-based; conditions: MOI 0.5 PFU/cell, harvested 22 hours post infection, inhibitor present for entire infection
[2] = test system: HSV-1; test: HSV-1 viral protein synthesis in infected H-ras transformed NIH-3T3 cells, Western blot with rabbit anti-HSV-1 antibody; format: cell-based, HSV-1 (strain F); conditions: for production of viral proteins / HSV-1 infection / infectivity (summary statement): H-ras transformed NIH-3T3 cells; for production of viral proteins: 22 hours post-infection
Method: (§1) Western blot (Immunoblot) analysisinfected cells were lysed with the single detergent lysis buffer [50 mM Tris (pH 8.0), 150 mM NaCI, 0.02% sodium azide, 100 μg/ml phenylmethy-sulfonyl fluoride, 1 μg/ml aprotinin, and 1% Triton X-100], normalized for the amount of total protein and subjected to SDS-PAGE, followed by electroblotting onto nitrocellulose paper. The membrane was then washed and incubated with the primary antibody [rabbit antibody against all HSV-1 antigens (Dako, CA.; 1:20,000); mouse anti-ICP27 or anti-gC antibody (Rumbaugh-Goodwin Institute, FL; 1:1,000); rabbit anti-ICP8 antibody (from Dr. Paul Olivo, Washington University, St. Louis; 1:1,000); mouse anti-PKR and mouse anti-eIF-2 α antibody (Santa Cruz; 1:1,000); rabbit anti-phospho-PKR and rabbit antiphospho-eIF-2 α antibody (Biosource, CA; 1:1,000) followed by HRP-conjugated secondary antibody (1:2,000). After extensive washing, the blot was exposed to Lumigel detection solution (New England Biolabs) and subjected to autoradiography.
(§2) H-ras transformed NIH-3T3 cells were exposed to the farnesyl transferase inhibitors FTI-1 at a final concentration 50 μM or 100 μM in the culture medium. Control cells were not exposed to inhibitor. At 22 hours post-infection the cells were harvested and Western blot analysis was performed on these samples using rabbit anti-HSV-1 antibody, as described above.
as §2, with “To determine whether other inhibitors of farnesyl transferase would have the same effect on viral protein synthesis, three additional inhibitors were tested. H-ras” for “H-ras”, “FPTI-1, FPTI-2 and FTI-4” for “FTI-1”, “150 μM, 150” for “50”, “or 50” for “100”, “postinfection” for “post-infection”
HSV-1 infected H-ras transformed NIH-3T3 cells were exposed to 40 μM PD98059 in the culture medium. Control cells (HSV-1 infected) were not exposed to PD98059. At 22 hours post-infection, the cells were harvested and Western blot analysis was performed on these samples using rabbit anti-HSV antibody, as described above.
P-13 Kinase Pathway is Not Involved in HSV-1 InfectionH-ras cells that were infected with HSV-1 were exposed to Wortmannin at a final concentration of 200 nM for the entire duration of the infection. Cells were harvested at 22 hr. post infection, lysed and subjected to SDS PAGE followed by immunoblotting with a rabbit anti-HSV-1 antibody.

[3] = test system: PKR phosphorylation; test: PKR phosphorylation in HSV-1 infected H-ras cells, immunoblot with anti-PKR / anti-phospho-PKR; format: cell-based, murine
Method: as §1
H-ras cells were exposed to FTI-1 (100 μM) or PD98059(40 μM) and the phosphorylation state of PKR was assessed using anti-PKR (total PKR) or anti-phospho-PKR (P-PKR) antibodies . […] The difference in phosphorylation of PKR in infected NIH-3T3 cells and in infected MEF cells is shown in the right side of FIG. 10, Panel “B”.

[4] = test system: HSV-1; test: HSV-1 viral protein synthesis in PKR+/+ and PKR-/- mouse embryo fibroblasts, Western blot; format: cell-based; conditions: MOI 0.5 PFU/cell, 20 hr post-infection
Method: The PKR^+/^+ and PKR^−/^− mouse embryo fibroblasts were obtained from Dr. B. R. G. Williams (the Cleveland Clinic Foundation) and were grown in α-MEM containing 10% FBS and antibiotics, as described.
as §1, with “After extensive washing, the blot was exposed to Lumigel detection solution (New England Biolabs) and subjected to autoradiography.” left out
The level of infection by R3616 in PKR^−/^− fibroblasts is equivalent to that seen in cells transformed by Ras, or elements of the Ras pathway. […] Cells were harvested at 20 hr post-infection and analyzed for viral proteins as above. […]

[5] = test system: HSV-1; test: Immunofluorescence of HSV-1-infected A549 cells; format: cell-based; conditions: 100 μM FTI-1
[6] = test system: ERK1/2 (Erk42/44) phosphorylation; test: ERK1/2 phosphorylation in H-ras cells, Western blot; format: cell-based, murine
Description: (§3) Briefly, subconfluent monolayer cultures were lysed with the recommended SDS-containing sample buffer, the lysate was subjected to SDS-PAGE and electroblotted onto nitrocellulose paper. Blots were probed with anti-ERK1/2 or anti-phospho-ERK1/2 antibodies (for samples treated with FTI-1 or PD98059), anti-ATF-2 or anti-phospho-ATF-2 (for samples treated with SB203580), and anti-Akt and anti-phospho-Akt (for samples treated with Wortmannin). The antibody kits were purchased from New England Biolabs (MA). FTI-1, PD98059, SB203580 and Wortmannin were purchased from Calbiochem (CA).

[7] = test system: ATF-2 phosphorylation; test: ATF-2 phosphorylation in H-ras cells, Western blot; format: cell-based, murine; conditions: SB203580
Description: as §3

| Compound | virus yield (plaque titration on Vero cells) [1] | production of viral proteins ([2]; FTI-1 50 μM or 100 μM in culture medium, vs control without inhibitor) | HSV-1 infection / infectivity (summary statement) [2] | PKR phosphorylation ([3]; FTI-1 100 μM) | HSV-1 infection (viral protein synthesis) ([4]; PKR+/+ cells) | HSV-1 infection (viral protein synthesis) ([4]; PKR-/- cells) | level of viral proteins detected by immunofluorescence [5] | phosphorylation of ERK1/2 (ERK42/44) ([6]; FTI-1 50 μM or 100 μM) | production of viral proteins ([2]; 40 μM PD98059, vs control) | PKR phosphorylation ([3]; PD98059 40 μM) | phosphorylation of ERK1/2 (Erk42/44) ([6]; PD98059 40 μM) | phosphorylation of ATF-2 [7] | effect on HSV-1 infection (viral proteins, immunoblot) ([2]; SB203580 at effective doses, H-ras transformed cells) |
| --- | --- | --- | --- | --- | --- | --- | --- | --- | --- | --- | --- | --- | --- |
| CSCC[C@H](NC(=O)[C@H](Cc1ccccc1)NC[C@@H](NC[C@@H](N)CS)C(C)C)C(=O)O [FTI-1] | dramatically decreased virus yield | drastically reduced | effectively block HSV-1 infection | PKR phosphorylation is restored | inhibited HSV-1 infection | no effect | dramatically reduces the level of viral proteins detected | reduced phosphorylation of ERK1/2 |  |  |  |  |  |
| COc1cccc(-c2cc(=O)c3ccccc3o2)c1N [PD98059] | dramatically decreased virus yield |  | partially blocked HSV-1 infection |  |  |  |  |  | reduced | PKR phosphorylation is restored | lack of phosphorylation of ERK1/2 |  |  |
| C[S+]([O-])c1ccc(-c2nc(-c3ccncc3)c(-c3ccc(F)cc3)[nH]2)cc1 (centres unmarked) [SB203580] | does not effect virus yield |  | neither SB203580 [11] a specific inhibitor of p38 kinase, or Wortmannin [12] a specific inhibitor of P13-kinase, had any measurable effect |  |  |  |  |  |  |  |  | lack of phosphorylation of ATF-2 | no effect on HSV-1 infection |
